Data: patent publication US5324725A, “7-fused 2-(piperazinoalkyl) indole derivatives, intermediates and compositions thereof” (Kali-Chemie Pharma GmbH, priority 1991, dated 1994)

What follows are compounds tested against T1, 5-lipoxygenase (Mus musculus, UniProt P48999) (assay: 5-lipoxygenase inhibition: release of LTC4 from zymosan-stimulated mouse peritoneal macrophage cells). Details: 10^-5 mol/l, read-out: In vitro % inhibition effect on the release of LTC4.
T1 construct: A cell suspension containing peritoneal cells of male mice 8-10 weeks old was obtained; endogenous in cells; host or cells: mouse peritoneal macrophages (male mice 8-10 weeks old), zymosan-stimulated
T1 sequence (P48999 1-674): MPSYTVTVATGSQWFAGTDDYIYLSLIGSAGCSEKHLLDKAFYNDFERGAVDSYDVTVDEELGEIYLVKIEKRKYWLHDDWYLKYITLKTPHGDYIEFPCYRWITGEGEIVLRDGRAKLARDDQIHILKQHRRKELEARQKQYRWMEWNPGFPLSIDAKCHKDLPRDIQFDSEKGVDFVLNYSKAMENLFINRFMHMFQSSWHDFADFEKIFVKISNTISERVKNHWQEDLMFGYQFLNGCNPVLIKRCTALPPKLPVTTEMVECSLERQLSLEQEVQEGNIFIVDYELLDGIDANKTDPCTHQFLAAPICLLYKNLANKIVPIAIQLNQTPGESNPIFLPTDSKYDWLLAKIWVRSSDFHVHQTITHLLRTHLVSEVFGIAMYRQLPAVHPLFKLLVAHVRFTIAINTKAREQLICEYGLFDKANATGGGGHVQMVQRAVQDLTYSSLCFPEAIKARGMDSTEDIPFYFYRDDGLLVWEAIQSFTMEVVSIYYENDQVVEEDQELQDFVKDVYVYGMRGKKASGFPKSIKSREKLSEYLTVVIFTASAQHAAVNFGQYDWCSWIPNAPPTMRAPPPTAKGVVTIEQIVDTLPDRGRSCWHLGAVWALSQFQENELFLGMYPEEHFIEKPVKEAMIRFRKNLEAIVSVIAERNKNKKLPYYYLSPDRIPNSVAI
Assay type: cell-based
Text: 5. In vitro determination of cyclooxygenase inhibition and 5-lipoxygenase inhibition.
After activation of the cell, arachidonic acid contained in cell membranes is metabolized in two ways. Leukotrienes, inter alia leukotriene C4, are formed under the action of the enzyme 5-lipoxygenase (5-LO), and prostanoids are formed under the action of the enzyme cyclooxygenase (CO). In in vitro systems, the metabolites are secreted from the cell.
To investigate the cyclooxygenase-inhibiting and the 5-lipoxygenase-inhibiting properties, the inhibitory effect of the test substances on the biosynthesis of the arachidonic acid derivatives leukotriene C4 (LTC4) and 6-ketoprostaglandin F1 α (6-keto-PGF1 α) is determined in vitro on mouse peritoneal macrophage cells. This was accomplished by determining the LTC4 and 6-keto-PGF1 α contents in a culture medium of mouse peritoneal macrophage cells by zymosan stimulation as described by Scott et al. (J. Exp. Med. 152 (1980), 324-335) and by Fradin et al. (Prostaglandins, 33 (1987), 579-589).
A cell suspension containing peritoneal cells of male mice 8-10 weeks old was obtained in a known manner. A commercially available cell culture solution (RPMI 1640 from Messrs. Gibco) was used to which heparin (I0 international units/ml) and antibiotics were added according to the recipe of Bonney et al. (Biochem. J. 176 (1978) 422-433). The cell suspension was adjusted to a cell concentration of 10^6 cells per ml and distributed uniformly on titer plates containing […] (wells). These were kept for two hours in a humidified incubator filled with air enriched with 7% CO2. Cells not adhering to the titer cell walls were then removed by washing. The remaining macrophage cells adhering to the walls were incubated for about 12 hours in a suspension medium to which 0.1% bovine serum albumin (BSA) were added. The suspension medium was then replaced by a Hanks balanced salt solution (HBSS) containing 10 mM Hepes (hydroxyethyl-piperazinoethanesulfonic acid), to which a 0.1% strength solution of the test substances in aqueous, 1% strength dimethylformamide or only the solvent had been added. After 15 minutes the arachidonic acid metabolism was stimulated by adding 10 particles of zymosan (=glycoproteinmixture, isolated from cell walls of beer yeast, Saccharomyces cerevisiae, manufactured by Sigma Chemical Co., Munich) per titer cell. After 2 hours, samples of each of the supernatant liquids were investigated for their 6-keto-PGF1 α and LTC4 contents by means of an enzyme immunoassay (EIA) carried out by the method of Pradelles et al. (Analytical Chem. 57 (1985), 1170-1173). The determination of LTC4 and the determination of 6-keto-PGF1 α were each carried out in comparison with a comparative scale on suitable dilutions of the samples (1:50 to 1:250 for the LTC4 determination and 1:250 to 1:1250 for the 6-keto-PGF1 α determination). To determine the inhibitory effect of a 10^-5 molar concentration of the compounds, the amount of reference eicosanoids was determined and the inhibitory effect was calculated from this in % inhibition compared to the measurements of the zymosan controls.

Structure (SMILES) | inhibition at 10 µM
CCCCC1CCc2cccc3c(CCN4CCN(c5cc(C)ccn5)CC4)c(C)n1c23 (centres unmarked) [Example 73, 4-n-butyl-5,6-dihydro-2-methyl-1-{2-[4-(4-methylpyridin-2-yl)piperazin-1-yl]ethyl}-4H-pyrrolo[3,2,1-ij]quinoline] | 90%
Cc1ccnc(N2CCN(CCc3c(C)n4c5c(cccc35)CCC4c3ccc(O)cc3)CC2)c1 (centres unmarked) [Example 61] | 98%
Cc1ccc(N2CCN(CCc3c(C)n4c5c(cccc35)CCC4)CC2)nc1 [Example 42] | 15%
COc1ccc(-c2c(CCN3CCN(c4cc(C)ccn4)CC3)c3cccc4c3n2CCC4)cc1 [Example 7, 2-(4-methoxy-phenyl)-1-{2-[4-(4-methylpyridin-2-yl)piperazin-1-yl]ethyl}-5,6-dihydro-4H-pyrrolo[3,2,1-ij]quinoline] | 56%
CCCCC1CCc2cc(O)cc3c(CCN4CCN(c5cc(C)ccn5)CC4)c(C)n1c23 (centres unmarked) [Example 76] | 75%
Cc1ccnc(N2CCN(CCc3c(C)n4c5c(cc(C(=O)C(C)C)cc35)CCC4)CC2)c1 [Example 27, 5,6-dihydro-2-methyl-8-(2-methyl-1-oxopropyl)-1-{2-[4-(4-methylpyridin-2-yl)piperazin-1-yl]ethyl}-4H-pyrrolo-[3,2,1-ij]quinoline] | 61%
CNc1cc2c3c(c1)c(CCN1CCN(c4cc(C)ccn4)CC1)c(C)n3CCC2 [Example 80] | 39%
CCCCC1CCc2cc(OC)cc3c(CCN4CCN(c5cc(C)ccn5)CC4)c(C)n1c23 (centres unmarked) [Example 63] | 98%
COc1ccc(C2CCc3cc(OC)cc4c(CCN5CCN(c6cc(C)ccn6)CC5)c(C)n2c34)cc1 (centres unmarked) [Example 65] | 89%
Cc1ccnc(N2CCN(CCc3c(C)n4c5c(cc(Cc6ccccc6)cc35)CCC4)CC2)c1 [Example 77] | 74%
Cc1c(CCN2CCN(c3ccccn3)CC2)c2cccc3c2n1CCC3 [Example 37] | 13%
COc1ccc(C2CCc3cccc4c(CCN5CCN(c6cc(C)ccn6)CC5)c(C)n2c34)cc1 (centres unmarked) [Example 59] | 80%
Cc1ccnc(N2CCN(CCc3c(C)n4c5c(ccc(C(O)C(C)C)c35)SCC4)CC2)c1 (centres unmarked) [Example 90] | 66%
Cc1ccnc(N2CCN(CCc3c(C)n4c5c(c(C(O)C(C)C)ccc35)SCC4)CC2)c1 (centres unmarked) [Example 89] | 51%
Cc1ccnc(N2CCN(CC(O)c3c(C4CCCCC4)n4c5c(cccc35)CCC4)CC2)c1 (centres unmarked) [Example 85] | 62%
CCc1c(C(O)CN2CCN(c3cc(C)ccn3)CC2)c2cccc3c2n1CCC3 (centres unmarked) [Example 14, 2-Ethyl-5,6-dihydro-1-{2-[4-(4-methylpyridin-2-yl)piperazin-1-yl]-1-hydroxyethyl}-4H-pyrrolo[3,2,1-ij]quinoline] | 55%
Cc1ccnc(N2CCN(CCc3c(C)n4c5c(c(Cl)cc(Cl)c35)OCC4)CC2)c1 [Example 79] | 71%
Cc1ccnc(N2CCN(CCc3c(C)n4c5c(cc(C(=O)C6CCCCC6)cc35)CCC4)CC2)c1 [Example 83] | 34%

Structure (SMILES) | inhibition at 10 µM
Cc1ccnc(N2CCN(CCc3c(C)n4c5c(cccc35)CCC4c3ccccc3)CC2)c1 (centres unmarked) [Example 3, 5,6-dihydro-2-methyl-4-phenyl-1-{2-[4-(4-methylpyridine-2-yl)piperazin-1-yl]-ethyl}-4H-pyrrolo[3,2,1-ij]quinoline] | 37%
CC(C)=Cc1cc2c3c(c1)c(CCN1CCN(c4cc(C)ccn4)CC1)c(C)n3CCC2 [Example 26, 5,6-Dihydro-2-methyl-8-(2-methylprop-1-enyl)-1-{2-[4-(4-methylpyridin-2-yl)piperazin-1-yl]ethyl}-4H-pyrrolo[3,2,1-ij]quinoline] | 89%
Cc1ccnc(N2CCN(CCc3c(C)n4c5c(ccc(Cl)c35)OCC4)CC2)c1 [Example 35] | 75%
Cc1ccnc(N2CCN(CCc3c(C)n4c5c(cccc35)CCC4)CC2)c1 [Example 1, 5,6-Dihydro-2-methyl-1-{2-[4-(4-methylpyridin-2-yl)piperazin-1-yl]ethyl}-4H-pyrrolo[3,2,1-ij]quinoline] | 24%
Cc1ccnc(N2CCN(CCc3c(C)n4c5c(cc(Br)cc35)CCC4)CC2)c1 [Example 9, 8-Bromo-2-methyl-1-{2-[4-(4-methylpyridin-2-yl)piperazin-1-yl]ethyl}-5,6-dihydro-4H-pyrrolo[3,2,1-ij]quinoline] | 62%
CC(=O)c1cc2c3c(c1)c(CCN1CCN(c4cc(C)ccn4)CC1)c(C)n3CCC2 [Example 67] | 66%
Cc1ccnc(N2CCN(CCc3c(C)n4c5c(ccc(C(=O)C(C)C)c35)SCC4)CC2)c1 [Example 91] | 81%
Cc1ccnc(N2CCN(CCc3c(C)n4c5c(cccc35)CC4C)CC2)c1 (centres unmarked) [Example 33] | 4%
CCCCCCCC1CCc2cccc3c(CCN4CCN(c5cc(C)ccn5)CC4)c(C)n1c23 (centres unmarked) [Example 4, 4-n-heptyl-5,6-dihydro-2-methyl-1-{2-[4-(4-methylpyridin-2-yl)piperazin-1-yl]ethyl}-4H-pyrrolo[3,2,1-ij]-quinoline] | 44%
Cc1ccnc(N2CCN(CCc3c(C)n4c5c(cc(NC(=O)c6ccccc6)cc35)CCC4)CC2)c1 [Example 25, 8-Benzoylamino-5,6-dihydro-2-methyl-1-{2-[4-(4-methylpyridin-2-yl)piperazin-1-yl]-ethyl}-4H-pyrrolo[3,2,1-ij]quinoline] | 69%
Cc1ccnc(N2CCN(CCc3c(-c4ccc(OCCCCO)cc4)n4c5c(cccc35)CCC4)CC2)c1 [Example 12, 2-[4-(4-Hydroxybutyloxy)-phenyl]-1-{2-[4-(4-methylpyridin-2-yl)piperazin-1-yl]ethyl}-5,6-dihydro-4H-pyrrolo[3,2,1-ij]quinoline] | 97%
CCCCC1CCc2cc(C(=O)C(C)C)cc3c(CCN4CCN(c5cc(C)ccn5)CC4)c(C)n1c23 (centres unmarked) [Example 23, 4-n-Butyl-5,6-dihydro-8-(2-methyl-1-oxopropyl)-2-methyl-1-{2-[4-(4-methylpyridin-2-yl)piperazin-1-yl]ethyl}-4H-pyrrolo[3,2,1-ij]quinoline] | 94%
Cc1ccnc(N2CCN(CCc3c(C)n4c5c(cccc35)CCC4C3CCCCC3)CC2)c1 (centres unmarked) [Example 87] | 23%
Cc1ccnc(N2CCN(CCc3c(C)n4c5c(cc(C(=O)c6ccccc6)cc35)CCC4)CC2)c1 [Example 66] | 33%
Cc1ccnc(N2CCN(CCc3c(CO)n4c5c(cccc35)CCC4)CC2)c1 [Example 16, 5,6-dihydro-2-hydroxymethyl-1-{2-[4-(4-methylpyridin-2-yl)piperazin-1-yl]ethyl}-4H-pyrrolo[3,2,1-ij]quinoline] | 17%
Cc1ccnc(N2CCN(CCc3c(C)n4c5c(cc(N(C)C)cc35)CCC4)CC2)c1 [Example 81] | 29%
Cc1ccnc(N2CCN(CCc3c(C)n4c5c(cc(CC(C)C)cc35)CCC4)CC2)c1 [Example 21, 5,6-Dihydro-2-methyl-8-(2-methylpropyl)-1-{2-[4-(4-methylpyridin-2-yl)piperazin-1-yl]ethyl}-4H-pyrrolo[3,2,1-ij]quinoline] | 95%
